The text below walks through data of article PMC4712073 (Analytical and bioanalytical chemistry, 2015).

By IC50 is commonly meant the concentration that inhibits the measured activity by half.

Where two headings read alike, the source gives them in different places.

Test [1] concerns the target T1, SIRT5 (Homo sapiens, UniProt Q9NXA8).
T1 sequence (Q9NXA8 37-310): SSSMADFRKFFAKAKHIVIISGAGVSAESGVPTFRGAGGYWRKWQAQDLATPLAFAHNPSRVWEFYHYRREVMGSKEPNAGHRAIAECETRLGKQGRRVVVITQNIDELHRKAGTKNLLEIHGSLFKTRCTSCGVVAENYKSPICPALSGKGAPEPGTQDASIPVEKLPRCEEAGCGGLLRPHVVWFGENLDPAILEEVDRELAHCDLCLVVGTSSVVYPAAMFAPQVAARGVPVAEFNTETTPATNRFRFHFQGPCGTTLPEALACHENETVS
The conditions noted are these: reported as SIRT5 inhibitor; cited from earlier work.

Test [2] concerns the target T1, SIRT5. Kind of test: Peptide-based SIRT5 desuccinylation assay by droplet microchip electrophoresis. Format: biochemical.

For the compound `N#C/C(=C\c1ccc(-c2cc(Cl)ccc2Cl)o1)C(=O)Nc1cccc2ncccc12` [AGK-2], at SIRT5 [1], the IC50 was greater than 100 µM.
Regarding `CCCCCCCCCCCCCCCc1cccc(O)c1C(=O)O` [anacardic acid], at SIRT5 [2] (pilot screening, chosen as positive control (10 µM)), the “SIRT5 inhibition (in words)” value is “potent inhibitor”.
For `CCCCCC[C@H]1C(=O)O[C@H](C)[C@H](NC(=O)c2cccc(NC=O)c2O)C(=O)O[C@@H](C)[C@@H]1OC(=O)CC(C)C` [antimycin A], the IC50 result against SIRT5 [2] (Prestwick hits, dose-response analysis 0.1 to 100 µM) is recorded as “near the maximum tested dose”.
